Laboratory results published in patent US12241087B2, “Compositions and methods for differentiating stem cells into NK cells” (CRISPR THERAPEUTICS AG, priority 2020, dated 2025).

Key:
iPSC [1] = assay: CD45/CD56 expression on day 28 after early modulation of WNT signaling; assay type: cell-based, human
Protocol: For iPSC-HSPC differentiation optimization, CD45/CD56 expression on day 28 was measured (FIG. 10). The HSPC cells on day 6 were further differentiated to iNK in the StemPro-34—based differentiation media Table 12) in the presence of IL7, IL15, SCF. Flt3L, (IL3 was added for days 6-14 only). […] However, it was not an optimal condition as the single cells production and expansion was lower than in conditions in the presence of Activin A molecule (data not shown). Due to low CD56^+ cells formation on day 28, the HSPC to iNK differentiation conditions was optimized.

iPSC [2] = assay: Effect of CHIR-99021 concentration in NK-MED-005c medium on iNK induction; assay type: cell-based, human; conditions: 2.5, 3.5 or 4.5 μM, differentiation day 20, AP2.0
Protocol: To determine the optimal concentration of CHIR-99021, different concentrations (2.5 μM, 3.5 μM or 4.5 μM) were added to the NK-MED-005c medium (Table 30) to test their effect on iNK induction. Differentiation proceeded according to Protocol 2 (AP2.0) as described in Example 11. Cells were collected and analyzed using flow cytometry to detect CD45^+CD56^+ cells at differentiation day 20.

HSPC [3] = assay: Design of Experiment (DoE) I, day 6 to day 20; assay type: cell-based, human; conditions: differentiation and number of cells at day 20
Protocol: This Example reports the identification of optimized concentrations for certain components in the base media. A design of Experiment (DoE) study was performed to determine the concentrations of zinc sulfate, β-mercaptoethanol, human serum, and glucose that would provide the most differentiation and increased number of cells at differentiation day 20. These factors were selected based on known chemical/biological effects of them in affect general cell proliferation and differentiation. Potential positive/negative involvement of β-mercaptoethanol, zinc ion, human serum, and glucose in NIK cell or lymphocyte cell proliferation, killer cell receptor function, and cytotoxicity have been previously reported. There were no known studies conducted on testing optimal range of these factors in NK cell induction from HSPC.

HSPC [4] = assay: Stage II basal media testing (HSPC to iNK), day 21 single cells; assay type: cell-based, human; conditions: in StemPro-based media
Protocol: This Example investigates the use of various alternative base media that can be used for Stage II differentiation. […] The HSPC to iNK differentiation from day 6 further on was done in StemPro-34—based media (Table 12). […] In this Example, the […] until day 6 as described in Example 2 (i.e., steps 1-5). Each media was supplemented with 20 ng/mL IL7, 20 ng/mL IL15, 20 ng/mL SCF, 20 ng/mL Flt3L and 5 ng/mL of IL-3 for days 6-14 and 20 ng/mL IL7, 20 ng/mL IL15, 20 ng/mL SCF, 20 ng/mL Flt3L for days 14-21 of differentiation.
Day 21 single cells were profiled for CD45^+/CD56^+, CD56^+/NKG2D^+, CD56^+/CD94^+, and CD56^+/CD16^+ expression (FIG. 12). […] The DMEM/F12 2:1 basal media was chosen due to its price and higher availability for scale up production.

HSPC [5] = assay: Effect of β-mercaptoethanol on differentiation, CD45 and CD56 expression; assay type: cell-based; conditions: 50 μM in DMEM/F12 media with low zinc, low human serum
Protocol: To determine the effects of β-mercaptoethanol on differentiation, CD45+ and CD56+ expression was measured in cells cultured in Stempro34 media, DMEM/F12 media with low zinc, low human serum, and no β-mercaptoethanol (bME), or DMEM/F12 media with low zinc, low human serum, and 50 μM β-mercaptoethanol.

iPSC [6] = assay: Effect of WNT-C59 in NK-MED-006 medium on iNK induction; assay type: cell-based, human; conditions: 2 μM, day 20 cultures, AP2.0
Protocol: The effect of including WNT-C59 (2 μM) in NK-MED-006 medium during iNK induction using the AP2.0 protocol was examined. […] The addition of WNT-C59 increased proportion of cells expressing non-NK lineage markers.

Cc1cnc(-c2cnc(NCCNc3ccc(C#N)cn3)nc2-c2ccc(Cl)cc2Cl)[nH]1 [CHIR-99021, 6-[[2-[[4-(2,4-Dichlorophenyl)-5-(5-methyl-1H-imidazol-2-yl)-2-pyrimidinyl]amino]ethyl]amino]-3-pyridinecarbonitrile]
CD56+ percentage (iPSC [1]; day 28, condition #5, StemPro-34 based media): highest
single cells production and expansion (iPSC [1]; versus conditions with Activin A, data not shown): lower
proportion of CD45+CD56+ cells (iPSC [2]): highest proportion of CD45^+CD56^+ cells were collected using a moderate amount

OCCS [β-mercaptoethanol]
direction of effect in DoE I (HSPC [3]): negative effect
iNK differentiation (HSPC [4]): prevented iNK differentiation
effect on iNK cell induction (HSPC [5]): negative effect

Cc1cc(-c2ccc(CC(=O)Nc3ccc(-c4cccnc4)cc3)cc2)ccn1 [WNT-C59]
proportion of cells expressing non-NK lineage markers (iPSC [6]): increased
proportion of iNK that expressed the myeloid progenitor marker CD33 (iPSC [6]): altered

O=S(=O)([O-])[O-].[Zn+2] [Zinc sulfate]
direction of effect in DoE I (HSPC [3]): positive effect
